Assay results: US20240182436A1, “SUBSTITUTED SULFONAMIDE-CHROMAN COMPOUNDS, AND PHARMACEUTICAL COMPOSITIONS, AND METHODS OF USE THEREOF” (priority 2021, published 2024)

System: Harmaline-induced tremor
Assay: Harmaline-induced Tremor Model
Format: in vivo
Conditions: adult male CD1 mice, test article 30 mg/kg i.p., harmaline 30 mg/kg i.p.; for inhibition in vivo at 30 mg/kg: Mus musculus, ip, read-out: Tremor Suppression Activity (magnitude of tremor suppression in percent compared to vehicle)
Description: Harmaline-induced Tremor: Harmaline-induced tremor is widely recognized as an animal model of Essential Tremor (ET). Following acute administration, harmaline produces an 8-16 Hz tremor in rodents, cats, and monkeys that, like ET, is postural and kinetic, involving appendicular and axial musculature (Handforth, A. (2012). Harmaline tremor: underlying mechanisms in a potential animal model of essential tremor. Tremor and Other Hyperkinetic Movements (NY), 2, 02-92-769-1; Handforth, A. (2016). Linking Essential Tremor to the Cerebellum-Animal Model Evidence. Cerebellum, 15(3), 285-298; LeDoux, M. (2005). Harmaline tremor. In Movement Disorders. Elsevier Inc.; Louis, E. D. (2014). Re-thinking the biology of essential tremor: From models to morphology. Parkinsonism and Related Disorders, 20 (SUPPL.1), S88-S93). […] Clinical agents that suppress ET in patients are generally effective in the harmaline-induced tremor model (Handforth 2016). Following acute dosing of harmaline in mice, the tremor frequency (10-20 Hz) is typically recorded using an automated force plate-based system.
Procedure: Tremor activity was measured using a custom-made testing apparatus containing a piezoelectric sensing platform which was connected to an amplifier (A-M Systems model 1700). Adult male CD1 mice were brought to the experiment room for acclimatization 1 h prior to testing. Mice were first placed inside the testing apparatus for 10 min baseline habituation. After the initial habituation, mice were treated with vehicle (10 ml/kg) or test article (30 mg/kg, i.p.) and placed back in the apparatus for an additional 20 min baseline recording. Subsequently, animals were injected with harmaline (30 mg/kg, i.p.) and tremor activity was measured for 20 min. The electric signal of tremor activity was amplified at a sampling rate of 512 Hz with a multichannel amplifier and then acquired, quantized, and digitized by a data acquisition unit (CED Micro 1401). The software Spike2 (v 7.07, Cambridge Electronic Design, Cambridge, UK) was used to analyze the tremor signal by performing Fourier transformation of the data into frequency spectra. Changes in absolute power were expressed relative to each animal's 20-min baseline for the frequencies of 10-20 Hz. Comparisons between treatment and respective vehicle groups were assessed with two-tailed, Student's t-test. The level of statistical significance was defined as p<0.05 (see, e.g., Table 2.1) The magnitude of tremor suppression in percent compared to vehicle is shown in Table 2.2.
A tremor suppression score was defined as the magnitude of tremor suppression in percent compared to vehicle: ≤24% (D), 25-55% (C), 56-70% (B) and 71-100% (A). Not tested (---).

Row | Compound | inhibition in vivo at 30 mg/kg | Tremor power relative to baseline (mean ± s.e.m.) (10-20 Hz power over 20 min relative to 20-min baseline)
1 | CC[C@H]1C[C@@H](CS(N)(=O)=O)c2ccc(F)cc2O1 (stereo in doubt) [Compound 12, ((2S*,4R*)-2-ethyl-7-fluorochroman-4-yl)methanesulfonamide] | 56 to 70% | 196 ± 59
2 | CC[C@H]1COc2cc(F)ccc2[C@H]1CS(N)(=O)=O (stereo in doubt) [Compound 19, ((3R*,4S*)-3-ethyl-7-fluorochroman-4-yl)methanesulfonamide] | ≤ 24% | 
3 | CC[C@@H]1COc2cc(F)ccc2[C@@H]1CS(N)(=O)=O (stereo in doubt) [Compound 20, ((3S*,4R*)-3-ethyl-7-fluorochroman-4-yl)methanesulfonamide] | 71 to 100% | 
4 | CC[C@@H]([C@H]1CCOc2cc(F)ccc21)S(N)(=O)=O (stereo in doubt) [Compound 25, (S*)-1-((S*)-7-fluorochroman-4-yl)propane-1-sulfonamide] | 56 to 70% | 
5 | CC[C@H]([C@@H]1CCOc2cc(F)ccc21)S(N)(=O)=O (stereo in doubt) [Compound 26, (R*)-1-((R*)-7-fluorochroman-4-yl)propane-1-sulfonamide] | 71 to 100% | 
6 | C[C@@H]1C[C@H](CS(N)(=O)=O)c2ccccc2O1 (stereo in doubt) [Compound 33, ((2R*,4S*)-2-methylchroman-4-yl)methanesulfonamide] | 25 to 55% | 
7 | C[C@H]1C[C@@H](CS(N)(=O)=O)c2ccccc2O1 (stereo in doubt) [Compound 34, ((2S*,4R*)-2-methylchroman-4-yl)methanesulfonamide] | 56 to 70% | 
8 | C[C@H]1COc2ccccc2[C@H]1CS(N)(=O)=O (stereo in doubt) [Compound 39, ((3R*,4S*)-3-methylchroman-4-yl)methanesulfonamide] | 25 to 55% | 
9 | C[C@@H]1COc2ccccc2[C@@H]1CS(N)(=O)=O (stereo in doubt) [Compound 40, ((3S*,4R*)-3-methylchroman-4-yl)methanesulfonamide] | 25 to 55% | 
10 | C[C@@H]1COc2ccccc2[C@H]1CS(N)(=O)=O (stereo in doubt) [Compound 41, ((3S*,4S*)-3-methylchroman-4-yl)methanesulfonamide] | 56 to 70% | 
11 | C[C@H]1COc2ccccc2[C@@H]1CS(N)(=O)=O (stereo in doubt) [Compound 42, ((3R*,4R*)-3-methylchroman-4-yl)methanesulfonamide] | ≤ 24% | 
12 | CN([C@H]1CCOc2cc(F)ccc21)S(N)(=O)=O (stereo in doubt) [Compound 69, 4(S*))-7-fluoro-4-[methyl(sulfamoyl)amino]-3,4-dihydro-2(H)-chromene] | ≤ 24% | 
13 | CN([C@@H]1CCOc2cc(F)ccc21)S(N)(=O)=O (stereo in doubt) [Compound 70, 4(R*))-7-fluoro-4[methyl(sulfamoyl)amino]-3,4-dihydro-2(H)-chromene] | ≤ 24% | 
14 | NS(=O)(=O)N[C@H]1CCOc2cc(F)ccc21 (stereo in doubt) [Compound 71, 4(S*))-7-fluoro-4-(sulfamoylamino)-3,4-dihydro-2(H)-chromene] | 56 to 70% | 
15 | NS(=O)(=O)N[C@@H]1CCOc2cc(F)ccc21 (stereo in doubt) [Compound 72, 4(R*))-7-fluoro-4-(sulfamoylamino)-3,4-dihydro-2(H)-chromene] | 25 to 55% | 
16 | C[C@@H]1COc2cc(F)ccc2[C@@H]1NS(N)(=O)=O (stereo in doubt) [Compound 73, (3(S*),4(R*))-7-fluoro-3-methyl-4-(sulfamoylamino)-3,4-dihydro-2(H)-chromene] | 56 to 70% | 
17 | C[C@H]1COc2cc(F)ccc2[C@H]1NS(N)(=O)=O (stereo in doubt) [Compound 74, (3(R*),4(S*))-7-fluoro-3-methyl-4-(sulfamoylamino)-3,4-dihydro-2(H)-chromene] | 56 to 70% | 
